Several values for one entry are separate records, joined by “and”; a condition that tells them apart may be missing. Equal values may be shown once. Results filed as inconclusive are left out.
Tested on: C3AKF1 mice, hamster liver cystadenocarcinoma s.c., tumor weight T/C
Experiment: NCI In Vivo Anticancer Drug Screen. Data for tumor model Cystadenocarcinoma, Liver (No. 1) (Hamster) (subcutaneous) in C3AKF1 (CHKRF1) mice
Settings: endpoint: mean tumor weight, higher = larger tumour
Procedure: The antitumor activity of compounds was measured in mice bearing transplantable tumors. Survival or tumor size were measured and the results are expressed as the measurement made in the treated group (T) divided by the measurement made in the vehicle treated control group (C). The tumor model used in this assay is Cystadenocarcinoma, Liver (No. 1) (Hamster) (subcutaneous) in C3AKF1 (CHKRF1) mice

[1] = dose: 25.0 mg/kg/injection, schedule: Q01DX010 (ip), vehicle: carboxymethylcellulose (CMC)
[2] = dose: 50.0 mg/kg/injection, schedule: Q01DX010 (ip), vehicle: carboxymethylcellulose (CMC)
[3] = dose: 100.0 mg/kg/injection, schedule: Q01DX010 (ip), vehicle: carboxymethylcellulose (CMC)
[4] = dose: 400.0 mg/kg/injection, schedule: Q01DX010 (ip), vehicle: carboxymethylcellulose (CMC)
[5] = dose: 37.5 mg/kg/injection, schedule: Q01DX010 (ip), vehicle: carboxymethylcellulose (CMC)
[6] = dose: 50.0 mg/kg/injection, schedule: Q01DX010 (ip), vehicle: saline
[7] = dose: 100.0 mg/kg/injection, schedule: Q01DX010 (ip), vehicle: saline
[8] = dose: 200.0 mg/kg/injection, schedule: Q01DX010 (ip), vehicle: saline
[9] = dose: 125.0 mg/kg/injection, schedule: Q01DX010 (ip), vehicle: carboxymethylcellulose (CMC)
[10] = dose: 3.0 mg/kg/injection, schedule: Q01DX010 (ip), vehicle: carboxymethylcellulose (CMC)
[11] = dose: 6.0 mg/kg/injection, schedule: Q01DX010 (ip), vehicle: carboxymethylcellulose (CMC)
[12] = dose: 12.0 mg/kg/injection, schedule: Q01DX010 (ip), vehicle: carboxymethylcellulose (CMC)
[13] = dose: 40.0 mg/kg/injection, schedule: Q01DX010 (ip), vehicle: carboxymethylcellulose (CMC)
[14] = dose: 10.0 mg/kg/injection, schedule: Q01DX010 (ip), vehicle: carboxymethylcellulose (CMC)
[15] = dose: 62.0 mg/kg/injection, schedule: Q01DX010 (ip), vehicle: carboxymethylcellulose (CMC)
[16] = dose: 250.0 mg/kg/injection, schedule: Q01DX010 (ip), vehicle: carboxymethylcellulose (CMC)
[17] = dose: 15.0 mg/kg/injection, schedule: Q01DX010 (ip), vehicle: carboxymethylcellulose (CMC)
[18] = dose: 19.0 mg/kg/injection, schedule: Q01DX010 (ip), vehicle: carboxymethylcellulose (CMC)
[19] = dose: 2.5 mg/kg/injection, schedule: Q01DX010 (ip), vehicle: carboxymethylcellulose (CMC)
[20] = dose: 30.0 mg/kg/injection, schedule: Q01DX010 (ip), vehicle: carboxymethylcellulose (CMC)
[21] = dose: 60.0 mg/kg/injection, schedule: Q01DX010 (ip), vehicle: carboxymethylcellulose (CMC)

CCN(CC)CC(C)Nc1ccc(C)c2sc3ccccc3c(=O)c12 (stereo not given)
T/C [1]: 98 % of control
T/C [2]: 87 % of control
T/C [3]: 76 % of control

S=c1c2[nH]cnc2ncn1CCSC1=NC=NC2=NC=NC21 (stereo not given)
T/C [3]: 95 % of control
T/C (dose: 200.0 mg/kg/injection, schedule: Q01DX010 (ip), vehicle: carboxymethylcellulose (CMC)): 100 % of control
T/C [4]: 97 % of control
T/C (dose: 600.0 mg/kg/injection, schedule: Q01DX010 (ip), vehicle: carboxymethylcellulose (CMC)): 93 % of control

CS(=O)(=O)OCCCCCCCCCOS(C)(=O)=O
T/C (dose: 8.0 mg/kg/injection, schedule: Q01DX010 (ip), vehicle: carboxymethylcellulose (CMC)): 99 % of control
T/C (dose: 16.0 mg/kg/injection, schedule: Q01DX010 (ip), vehicle: carboxymethylcellulose (CMC)): 82 % of control

NNc1nncc2ccccc12
T/C [5]: 111 % of control
T/C (dose: 75.0 mg/kg/injection, schedule: Q01DX010 (ip), vehicle: carboxymethylcellulose (CMC)): 94 % of control

S=C(N=Nc1ccccc1)NNc1ccccc1
T/C [5]: 98 % of control

CNC=O
T/C [6]: 39 % of control
T/C [7]: 34 % of control
T/C [8]: 20 % of control

Nc1ccc2ccccc2c1N=Nc1ccccc1
T/C (dose: 62.5 mg/kg/injection, schedule: Q01DX010 (ip), vehicle: carboxymethylcellulose (CMC)): 73 % of control
T/C [9]: 79 % of control

C=CCn1c(=O)n(CC=C)c(=O)n(CC=C)c1=O
T/C (dose: 22.5 mg/kg/injection, schedule: Q01DX010 (ip), vehicle: saline): 76 % of control
T/C (dose: 45.0 mg/kg/injection, schedule: Q01DX010 (ip), vehicle: saline): 63 % of control
T/C (dose: 90.0 mg/kg/injection, schedule: Q01DX010 (ip), vehicle: saline): 63 % of control

CSc1ncc(Br)c(Sc2nc(N)nc3nc[nH]c23)n1
T/C (dose: 1.5 mg/kg/injection, schedule: Q01DX010 (ip), vehicle: carboxymethylcellulose (CMC)): 106 % of control
T/C [10]: 117 % of control
T/C [11]: 92 % of control
T/C [12]: 74 % of control and 85 % of control and 92 % of control
T/C (dose: 18.0 mg/kg/injection, schedule: Q01DX010 (ip), vehicle: carboxymethylcellulose (CMC)): 103 % of control
T/C (dose: 27.0 mg/kg/injection, schedule: Q01DX010 (ip), vehicle: carboxymethylcellulose (CMC)): 77 % of control and 81 % of control
T/C [13]: 65 % of control

CCN(CC)CCN1C(=O)c2cccc3cccc(c23)C1=O
T/C (dose: 25.0 mg/kg/injection, schedule: Q01DX010 (ip), vehicle: saline): 90 % of control
T/C [6]: 163 % of control
T/C [7]: 109 % of control

CCc1c(CC(=O)O)c2cc(C)ccc2n1Cc1ccc(Cl)cc1
T/C [2]: 70 % of control
T/C [3]: 96 % of control

CC(C)NCC(=O)c1ccc(O)c(O)c1
T/C [6]: 75 % of control
T/C [7]: 59 % of control
T/C [8]: 90 % of control

[I][Hg][CH2]C1COCC([CH2][Hg][I])O1.[I][Hg][CH2]C1COCC([CH2][Hg][I])O1 (stereo not given)
T/C [14]: 83 % of control
T/C (dose: 20.0 mg/kg/injection, schedule: Q01DX010 (ip), vehicle: carboxymethylcellulose (CMC)): 109 % of control
T/C [13]: 91 % of control

CC(C)=CC1C(C(=O)OCc2ccc(C)cc2C)C1(C)C (stereo not given)
T/C (dose: 87.5 mg/kg/injection, schedule: Q01DX010 (ip), vehicle: carboxymethylcellulose (CMC)): 90 % of control
T/C (dose: 175.0 mg/kg/injection, schedule: Q01DX010 (ip), vehicle: carboxymethylcellulose (CMC)): 72 % of control
T/C (dose: 350.0 mg/kg/injection, schedule: Q01DX010 (ip), vehicle: carboxymethylcellulose (CMC)): 63 % of control

CCCCSc1nc(N)nc2c1ncn2CC(C)CC (stereo not given)
T/C [15]: 64 % of control
T/C [9]: 82 % of control
T/C [16]: 86 % of control and 94 % of control
T/C (dose: 750.0 mg/kg/injection, schedule: Q01DX010 (ip), vehicle: carboxymethylcellulose (CMC)): 54 % of control

O=[N+]([O-])c1ccccc1CSc1ncnc2nc[nH]c12
T/C [17]: 101 % of control
T/C (dose: 31.0 mg/kg/injection, schedule: Q01DX010 (ip), vehicle: carboxymethylcellulose (CMC)): 99 % of control
T/C [16]: 61 % of control

Cc1ccc(N=NN(C)C)cc1
T/C [1]: 96 % of control
T/C [2]: 93 % of control

ClCCn1cnc2c(SCc3ccccc3Cl)ncnc21
T/C [2]: 96 % of control
T/C [3]: 64 % of control
T/C [4]: 49 % of control

CCCCCCCCCCCCCCCCC(C(=O)O)C(O)(CC(=O)O)C(=O)O (stereo not given)
T/C [18]: 78 % of control
T/C [5]: 87 % of control

NC(=O)c1ccc(NC(=O)CCC(=O)Nc2ccc(C(N)=O)cn2)nc1
T/C (dose: 1.25 mg/kg/injection, schedule: Q01DX010 (ip), vehicle: carboxymethylcellulose (CMC)): 92 % of control
T/C [19]: 72 % of control

O=C(O)CCc1c[nH]c2ccc(N(CCCl)CCCl)cc12
T/C (dose: 1.2 mg/kg/injection, schedule: Q01DX010 (ip), vehicle: carboxymethylcellulose (CMC)): 109 % of control
T/C [19]: 97 % of control
T/C (dose: 5.0 mg/kg/injection, schedule: Q01DX010 (ip), vehicle: carboxymethylcellulose (CMC)): 77 % of control
T/C [14]: 69 % of control

N[C@@H](Cc1ccc(N(CCCl)CCCl)cc1)C(=O)O
T/C (dose: 0.5 mg/kg/injection, schedule: Q01DX010 (ip), vehicle: carboxymethylcellulose (CMC)): 57 % of control
T/C (dose: 1.0 mg/kg/injection, schedule: Q01DX010 (ip), vehicle: carboxymethylcellulose (CMC)): 63 % of control
T/C (dose: 2.0 mg/kg/injection, schedule: Q01DX010 (ip), vehicle: carboxymethylcellulose (CMC)): 92 % of control
T/C (dose: 4.0 mg/kg/injection, schedule: Q01DX010 (ip), vehicle: carboxymethylcellulose (CMC)): 75 % of control

CCCCn1cnc2c(SC)nc(N)nc21
T/C [20]: 88 % of control
T/C [21]: 74 % of control
T/C (dose: 115.0 mg/kg/injection, schedule: Q01DX010 (ip), vehicle: carboxymethylcellulose (CMC)): 75 % of control

CN(N=O)C(N)=O
T/C (dose: 3.75 mg/kg/injection, schedule: Q01DX010 (ip), vehicle: carboxymethylcellulose (CMC)): 95 % of control

O=C(c1ccc(C(=O)N2CC2)cc1)N1CC1
T/C [10]: 69 % of control
T/C [11]: 85 % of control
T/C [12]: 166 % of control
T/C (dose: 24.0 mg/kg/injection, schedule: Q01DX010 (ip), vehicle: carboxymethylcellulose (CMC)): 98 % of control

O=C(Nc1ccc(C2=NCCN2)cc1)c1ccc(C(=O)Nc2ccc(C3=NCCN3)cc2)c(NC(=O)c2ccc(C(=O)Nc3cc(C(=O)Nc4ccc(C5=NCCN5)cc4)ccc3C(=O)Nc3ccc(C4=NCCN4)cc3)cc2)c1
T/C [15]: 102 % of control
T/C [16]: 205 % of control

Clc1ccc2c(Cl)ncnc2c1
T/C (dose: 4.8 mg/kg/injection, schedule: Q01DX010 (ip), vehicle: carboxymethylcellulose (CMC)): 116 % of control
T/C (dose: 9.5 mg/kg/injection, schedule: Q01DX010 (ip), vehicle: carboxymethylcellulose (CMC)): 110 % of control
T/C [18]: 96 % of control
T/C [5]: 104 % of control

O=C(O)C1(NO)CCCC1
T/C (dose: 12.5 mg/kg/injection, schedule: Q01DX010 (ip), vehicle: carboxymethylcellulose (CMC)): 76 % of control
T/C [1]: 108 % of control
T/C [2]: 104 % of control
T/C [3]: 80 % of control

Clc1ccc(N2CCN(CCCN3CCN(c4cccc(Cl)c4)CC3)CC2)cc1
T/C (dose: 7.5 mg/kg/injection, schedule: Q01DX010 (ip), vehicle: carboxymethylcellulose (CMC)): 71 % of control
T/C [17]: 62 % of control
T/C [20]: 52 % of control
T/C [21]: 69 % of control

COC(=O)/C=C\C(=O)O (tested in a mixture with another compound)
T/C (dose: 3.5 mg/kg/injection, schedule: Q#A X020 (ip), vehicle: carboxymethylcellulose (CMC)): 105 % of control
T/C (dose: 7.5 mg/kg/injection, schedule: Q#A X020 (ip), vehicle: carboxymethylcellulose (CMC)): 49 % of control
T/C (dose: 15.0 mg/kg/injection, schedule: Q#A X020 (ip), vehicle: carboxymethylcellulose (CMC)): 38 % of control
